Key:
TEL-PDGFRβ-BaF3 = experiment: Proliferation of TEL-PDGFRβ-BaF3 cells, CCK8 cell viability assay; type: cell-based; conditions: Mus musculus, 72 hours, stably expressing PDGFRβ kinase
From the text: (§1) In this example the following cells were used: […] (purchased from ATCC), mouse P210-BaF3 (stably expressing BCR-ABL mutant activated kinase), mouse P210/T315I-BaF3 (stably expressing BCR-ABL/T315I mutant activated kinase), mouse FLT3-ITD-BaF3 (stably expressing FLT3/ITD mutant activated kinase), mouse TEL-FLT3-BaF3 (stably expressing FLT3 kinase), mouse TEL-cKIT-BaF3 (stably expressing cKIT kinase), mouse BaF3-tel/T670I-cKit (stably expressing cKIT/T670I mutant activated kinase), mouse Tel-VEGFR2-BaF3 (stably expressing VEGFR2 kinase), mouse Tel-PDGFRα-BaF3 (stably expressing PDGFRα kinase), mouse Tel-PDGFRβ-BaF3 (stably expressing PDGFRβ kinase), mouse Tel-RET-BaF3 (stably expressing RET kinase). The above cell lines were all constructed by our laboratory according to the following method: the kinase region sequences of human P210, P210/T315I, FLT3/ITD, FLT3, cKIT, cKIT/T670I, VEGFR2, PDGFRα, PDGFRβ, RET were respectively amplified by PCR, and inserted into MSCV-Puro vectors having N-terminal TEL or TPR fragments (Clontech). The vectors were stably transfected into mouse BaF3 cells by means of retrovirus, and the growth factor IL-3 were removed, eventually obtaining cell lines that depend on transferred protein P210, P210/T315I, FLT3/ITD, FLT3, cKIT, cKIT/T670I, VEGFR2, PDGFRα, PDGFRβ, or RET.
(§2) GI50 (unit: μM) was calculated by quantifying the number of living cells based on quantitative measurement of reductive dehydrogenase in living cells with CCK8 cell viability assay kit (Bestbio, China).

Tel-cKit/T670I-BaF3 = experiment: Proliferation of Tel-cKit/T670I-BaF3 cells, CCK8 cell viability assay; type: cell-based; conditions: Mus musculus, 72 hours, stably expressing cKIT/T670I
From the text: as §1, §2

TEL-PDGFRα-BaF3 = experiment: Proliferation of TEL-PDGFRα-BaF3 cells, CCK8 cell viability assay; type: cell-based; conditions: Mus musculus, 72 hours, stably expressing PDGFRα kinase
From the text: as §1, §2

Tel-cKit-BaF3 = experiment: Proliferation of Tel-cKit-BaF3 cells, CCK8 cell viability assay; type: cell-based, mouse; conditions: Mus musculus; 72 hours, CCK8; stably expressing cKIT kinase
From the text: as §1, §2

FLT3-ITD-BaF3 = experiment: Proliferation of FLT3-ITD-BaF3 cells, CCK8 cell viability assay; type: cell-based; conditions: Mus musculus, 72 hours, stably expressing FLT3/ITD
From the text: as §1, §2

TEL-VEGFR2-BaF3 = experiment: Proliferation of TEL-VEGFR2-BaF3 cells, CCK8 cell viability assay; type: cell-based; conditions: Mus musculus, 72 hours, stably expressing VEGFR2 kinase
From the text: as §1, §2

Tel-FLT3-BaF3 = experiment: Proliferation of Tel-FLT3-BaF3 cells, CCK8 cell viability assay; type: cell-based; conditions: Mus musculus, 72 hours, stably expressing FLT3 kinase
From the text: as §1, §2

BaF3 = experiment: Proliferation of BaF3 cells, CCK8 cell viability assay; type: cell-based; conditions: Mus musculus, 72 hours
From the text: as §1, §2

P210/T315I-BaF3 = experiment: Proliferation of P210/T315I-BaF3 cells, CCK8 cell viability assay; type: cell-based; conditions: Mus musculus, 72 hours, stably expressing BCR-ABL/T315I
From the text: as §1, §2

P210-BaF3 = experiment: Proliferation of P210-BaF3 cells, CCK8 cell viability assay; type: cell-based; conditions: Mus musculus, 72 hours, stably expressing BCR-ABL mutant activated kinase
From the text: as §1, §2

Structure (SMILES) | GI50 (TEL-PDGFRβ-BaF3) [nM] | GI50 (Tel-cKit/T670I-BaF3) [nM] | GI50 (TEL-PDGFRα-BaF3) [nM] | GI50 (Tel-cKit-BaF3) [nM] | GI50 (FLT3-ITD-BaF3) [nM] | GI50 (TEL-VEGFR2-BaF3) [nM] | GI50 (Tel-FLT3-BaF3) [nM] | GI50 (BaF3) [nM] | GI50 (P210/T315I-BaF3) [nM] | GI50 (P210-BaF3) [nM]
CC(=O)Nc1cc(Oc2ccc(NC(=O)Cc3cc(Cl)ccc3C(F)(F)F)cc2)ncn1 [Example 2, N-[4-(6-acetylamino-pyrimidin-4-yloxy)-phenyl]-2-(5-chloro-2-trifluoromethyl-phenyl)-acetamide] | 156 | > 10000 | 102 | 6930 | 158 | 2830 | 744 | > 10000 |  | 
CC(=O)Nc1cc(Oc2ccc(NC(=O)Cc3ccccc3C)cc2)ncn1 [Example 161, N-[4-(6-acetylamino-pyrimidin-4-yloxy)-phenyl]-2-(2-methyl-phenyl)-acetamide] | 116 | > 10000 | 24 | 7010 | 74 |  | 228 | > 10000 | > 10000 | > 10000
CC(=O)Nc1cc(Oc2ccc(NC(=O)Cc3ccc4ccccc4c3)cc2)ncn1 [Example 162, N-[4-(6-acetylamino-pyrimidin-4-yloxy)-phenyl]-2-naphth-2-yl-acetamide] | 6 | 915 | 4 | 313 | 19 |  | 113 | > 10000 | > 10000 | > 10000
CCCC(=O)Nc1cc(Oc2ccc(NC(=O)Cc3ccccc3C(F)(F)F)cc2)ncn1 [Example 167, N-(6-{4-[2-(2-trifluoromethyl-phenyl)-acetylamino]-phenoxy}-pyrimidin-4-yl)-butyramide] | 112 | 7940 | 41 | 9840 | 126 |  | 513 | > 10000 | > 10000 | > 10000
Cc1ccc(NC(=O)Nc2ccc(Oc3cc(N4CCN[C@H](C)C4)ncn3)cc2)cc1C(F)(F)F [Example 106, (R)-1-(4-methyl-3-(trifluoromethyl)phenyl)-3-(4-((6-(3-methylpiperazin-1-yl)pyrimidin-4-yl)oxy)phenyl)urea] | 136 | 990 | 21 | 1730 | 300 | 350 | 460 | 8920 |  | 
CC(=O)Nc1cc(Oc2ccc(CC(=O)Nc3ccccc3)cc2)ncn1 [Example 37, 2-[4-(6-acetylamino-pyrimidin-4-yloxy)-phenyl]-N-phenyl-acetamide] | 4 | 4030 | 5 | > 10000 | 162 |  | 2270 | > 10000 |  | > 10000
CC(=O)Nc1cc(Oc2ccc(NC(=O)C(C)c3ccc(C)cc3)cc2)ncn1 (centres unmarked) [Example 170, N-[4-(6-acetylamino-pyrimidin-4-yloxy)-phenyl]-2-(4-methyl-phenyl)-propanamide] | 925 | > 10000 | 137 | > 10000 | 1220 |  | 3160 | > 10000 | > 10000 | > 10000
CC(=O)Nc1cc(Nc2ccc(NC(=O)Cc3cccc(C(F)(F)F)c3)cc2)ncn1 [Example 165, N-[4-(6-acetylamino-pyrimidin-4-ylamino)-phenyl]-2-(3-trifluoromethyl-phenyl)-acetamide] | 12 | 4610 | 1 | 462 | 21 |  | 52 | > 10000 | > 10000 | > 10000
CC(=O)Nc1cc(Oc2ccc(NC(=O)Cc3cccc(Cl)c3)cc2)ncn1 [Example 169, N-[4-(6-acetylamino-pyrimidin-4-yloxy)-phenyl]-2-(3-chloro-phenyl)-acetamide] | 35 | > 10000 | 5 | 1700 | 24 |  | 105 | > 10000 | > 10000 | > 10000
CC(=O)Nc1cc(Oc2ccc(NC(=O)Cc3cccc4ccccc34)cc2)ncn1 [Example 163, N-[4-(6-acetylamino-pyrimidin-4-yloxy)-phenyl]-2-naphth-1-yl-acetamide] | 14 | 3270 | 5 | 924 | 11 |  | 25 | > 10000 | 9070 | > 10000
Cc1ccc(NC(=O)Nc2ccc(Oc3cc(N(C)CCO)ncn3)cc2)cc1C(F)(F)F [Example 87, 1-(4-{6-[(2-hydroxy-ethyl)-methyl-amino]-pyrimidin-4-yloxy}-phenyl)-3-(4-methyl-3-trifluoromethyl-phenyl)-urea] | 115 | 8850 | 26 | 354 | 58 | 398 | 169 | 7210 | 8490 | 
CC(=O)Nc1cc(Oc2ccc(NC(=O)Cc3ccc(F)c(F)c3)cc2)ncn1 [Example 168, N-[4-(6-acetylamino-pyrimidin-4-yloxy)-phenyl]-2-(3,4-difluoro-phenyl)-acetamide] | 33 | 4230 | 6 | 2690 | 42 |  | 99 | > 10000 | > 10000 | > 10000
CC(=O)Nc1cc(Oc2ccc(CC(=O)Nc3ccc(C)cc3C(F)(F)F)cc2)ncn1 [Example 38, 2-[4-(6-acetylamino-pyrimidin-4-yloxy)-phenyl]-N-(4-methyl-2-trifluoromethyl-phenyl)-acetamide] | 466 | 8310 | 35 | > 10000 | 213 | 2850 | 632 | > 10000 |  | > 10000
CC(=O)Nc1cc(Oc2ccc(CC(=O)Nc3ccc(C(F)(F)F)cc3)cc2)ncn1 [Example 36, 2-[4-(6-acetylamino-pyrimidin-4-yloxy)-phenyl]-N-(4-trifluoromethyl-phenyl)-acetamide] | 2 | 36 | < 1 | 589 | 4 |  | 17 | > 10000 |  | 
CC(=O)Nc1cc(Oc2ccc(CC(=O)N(C)c3ccc(Br)cc3)cc2)ncn1 [Example 39, 2-[4-(6-acetylamino-pyrimidin-4-yloxy)-phenyl]-N-(4-bromo-phenyl)-N-methyl-acetamide] | 134 | > 10000 | 57 | 7880 | 180 | 4260 | 347 | > 10000 |  | > 10000
CC(=O)Nc1cc(Nc2ccc(NC(=O)Cc3ccccc3C(F)(F)F)cc2)ncn1 [Example 164, N-[4-(6-acetylamino-pyrimidin-4-ylamino)-phenyl]-2-(2-trifluoromethyl-phenyl)-acetamide] | 938 | > 10000 | 84 | > 10000 | 444 |  | 1410 | > 10000 | > 10000 | > 10000
CC(=O)Nc1cc(Oc2ccc(CC(=O)Nc3cccc(C(F)(F)F)c3)cc2)ncn1 [Example 33, 2-[4-(6-acetylamino-pyrimidin-4-yloxy)-phenyl]-N-(3-trifluoromethyl-phenyl)-acetamide] | 4 | 81 | 1 | 301 | 10 | 13 | 4 | > 10000 |  | 
CC(=O)Nc1cc(Oc2ccc(CC(=O)Nc3cccc(Cl)c3C(F)(F)F)cc2)ncn1 [Example 35, 2-[4-(6-acetylamino-pyrimidin-4-yloxy)-phenyl]-N-(3-chloro-2-trifluoromethyl-phenyl)-acetamide] | 406 | 6600 | 203 | > 10000 | 67 |  | 925 | > 10000 |  | > 10000
